The values below come from US20230295119A1, “SUBSTITUTED PYRIDINES FOR THE TREATMENT OF INFLAMMATORY DISEASES” (GOSSAMER BIO SERVICES, INC., priority 2020, published 2023).

In one assay the target is TYK2 JH2 domain (Homo sapiens (Human), UniProt P29597). Kind of assay: TYK2 JH2 NanoBRET assay. Conditions: Table 20, read-out: TYK2 IC50. The format is binding. The essentials: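 Tracer displacement measured by BRET ratio (acceptor over donor) in live HEK293T cells transfected with a NanoLuc-tagged TYK2 JH2 construct; cells co-exposed to test compound and 0.5 µM final K10 tracer for 2 h before substrate/extracellular inhibitor addition.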

A further assay deals with human JAK1 (Homo sapiens (Human), UniProt P23458). Kind of assay: JAK1 TR-FRET kinase assay. Format: biochemical. Conditions: TR-FRET, JAK1 2.5 nM. For orientation: In TR-FRET formats the signal depends on donor and acceptor labels being close together.
The target of the next assay is human JAK2 (Homo sapiens (Human), UniProt O60674). Kind of assay: JAK2 TR-FRET kinase assay. Format: biochemical. The note with it: JAK2 0.025 nM.
A further assay deals with human JAK3 (Homo sapiens (Human), UniProt P52333). The assay can be described thus: JAK3 TR-FRET kinase assay. Format: biochemical. Conditions: JAK3 0.0125 nM.

pIC50: −log10 of the molar value. Some results are limits rather than exact numbers.

Sequence of TYK2 JH2 domain (P29597 589-875): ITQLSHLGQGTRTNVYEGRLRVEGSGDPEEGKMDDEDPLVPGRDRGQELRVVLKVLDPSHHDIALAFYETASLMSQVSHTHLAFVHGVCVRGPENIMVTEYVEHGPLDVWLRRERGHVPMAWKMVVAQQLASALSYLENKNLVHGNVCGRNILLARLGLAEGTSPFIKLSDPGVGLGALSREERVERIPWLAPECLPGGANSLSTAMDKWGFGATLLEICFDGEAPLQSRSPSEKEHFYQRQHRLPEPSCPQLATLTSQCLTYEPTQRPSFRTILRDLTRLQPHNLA
Sequence of human JAK1 (P23458 whole entry): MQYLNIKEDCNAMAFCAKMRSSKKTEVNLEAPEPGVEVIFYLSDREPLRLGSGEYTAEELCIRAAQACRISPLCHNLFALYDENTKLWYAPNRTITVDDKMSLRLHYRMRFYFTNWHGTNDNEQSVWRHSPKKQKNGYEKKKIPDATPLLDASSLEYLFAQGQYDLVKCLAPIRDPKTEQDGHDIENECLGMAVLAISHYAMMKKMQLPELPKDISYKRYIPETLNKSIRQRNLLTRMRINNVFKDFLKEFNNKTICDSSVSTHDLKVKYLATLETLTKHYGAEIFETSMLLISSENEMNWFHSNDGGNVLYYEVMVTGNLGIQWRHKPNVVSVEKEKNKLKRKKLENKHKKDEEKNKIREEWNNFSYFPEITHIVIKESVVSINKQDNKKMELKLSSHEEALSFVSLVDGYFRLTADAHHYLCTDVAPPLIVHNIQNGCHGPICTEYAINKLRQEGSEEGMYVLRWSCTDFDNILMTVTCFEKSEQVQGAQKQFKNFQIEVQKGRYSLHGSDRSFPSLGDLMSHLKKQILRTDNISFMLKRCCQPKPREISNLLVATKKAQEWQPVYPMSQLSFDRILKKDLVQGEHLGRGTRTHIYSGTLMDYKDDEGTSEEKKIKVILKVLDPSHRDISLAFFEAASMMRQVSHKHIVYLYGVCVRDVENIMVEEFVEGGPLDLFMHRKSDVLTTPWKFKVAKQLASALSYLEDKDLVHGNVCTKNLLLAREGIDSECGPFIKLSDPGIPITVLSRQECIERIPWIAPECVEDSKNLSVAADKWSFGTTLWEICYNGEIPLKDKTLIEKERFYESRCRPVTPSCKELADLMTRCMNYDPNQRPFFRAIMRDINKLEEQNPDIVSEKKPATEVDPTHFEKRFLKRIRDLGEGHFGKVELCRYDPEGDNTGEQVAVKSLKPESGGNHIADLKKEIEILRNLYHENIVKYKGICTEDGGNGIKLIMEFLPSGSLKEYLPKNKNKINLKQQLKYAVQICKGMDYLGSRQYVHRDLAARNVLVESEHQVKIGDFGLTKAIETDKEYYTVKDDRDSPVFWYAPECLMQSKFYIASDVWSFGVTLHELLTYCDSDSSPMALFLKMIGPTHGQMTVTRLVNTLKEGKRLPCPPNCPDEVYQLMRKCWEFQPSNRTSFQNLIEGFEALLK
Sequence of human JAK3 (P52333 whole entry): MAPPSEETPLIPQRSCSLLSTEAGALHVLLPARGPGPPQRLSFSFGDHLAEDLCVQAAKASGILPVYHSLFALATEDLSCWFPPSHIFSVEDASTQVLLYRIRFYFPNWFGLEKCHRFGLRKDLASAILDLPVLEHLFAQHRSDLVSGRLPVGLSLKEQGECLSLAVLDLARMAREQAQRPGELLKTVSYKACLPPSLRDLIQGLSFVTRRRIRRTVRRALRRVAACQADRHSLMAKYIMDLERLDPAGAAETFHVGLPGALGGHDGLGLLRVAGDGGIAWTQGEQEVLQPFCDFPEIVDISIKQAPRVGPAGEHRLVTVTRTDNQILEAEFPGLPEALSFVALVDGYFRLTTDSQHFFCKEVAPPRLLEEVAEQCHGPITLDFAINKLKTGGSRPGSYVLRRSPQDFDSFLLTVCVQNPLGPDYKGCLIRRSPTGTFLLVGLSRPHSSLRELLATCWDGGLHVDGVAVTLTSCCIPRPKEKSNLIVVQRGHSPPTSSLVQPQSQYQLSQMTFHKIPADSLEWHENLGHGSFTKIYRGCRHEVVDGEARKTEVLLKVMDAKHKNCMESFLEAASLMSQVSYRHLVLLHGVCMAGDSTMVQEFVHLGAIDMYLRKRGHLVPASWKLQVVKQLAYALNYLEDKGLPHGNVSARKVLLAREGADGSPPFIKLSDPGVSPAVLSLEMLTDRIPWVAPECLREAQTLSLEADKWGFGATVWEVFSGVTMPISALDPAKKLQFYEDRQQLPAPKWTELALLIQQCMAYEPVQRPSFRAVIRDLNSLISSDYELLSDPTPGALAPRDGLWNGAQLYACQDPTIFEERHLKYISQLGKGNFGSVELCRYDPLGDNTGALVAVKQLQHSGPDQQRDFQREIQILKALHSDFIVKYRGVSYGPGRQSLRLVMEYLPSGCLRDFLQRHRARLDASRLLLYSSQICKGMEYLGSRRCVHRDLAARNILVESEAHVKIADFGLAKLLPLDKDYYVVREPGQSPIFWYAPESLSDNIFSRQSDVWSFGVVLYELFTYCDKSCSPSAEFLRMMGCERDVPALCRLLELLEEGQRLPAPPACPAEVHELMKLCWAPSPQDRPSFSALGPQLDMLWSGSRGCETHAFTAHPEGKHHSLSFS
Sequence of human JAK2 (O60674 whole entry): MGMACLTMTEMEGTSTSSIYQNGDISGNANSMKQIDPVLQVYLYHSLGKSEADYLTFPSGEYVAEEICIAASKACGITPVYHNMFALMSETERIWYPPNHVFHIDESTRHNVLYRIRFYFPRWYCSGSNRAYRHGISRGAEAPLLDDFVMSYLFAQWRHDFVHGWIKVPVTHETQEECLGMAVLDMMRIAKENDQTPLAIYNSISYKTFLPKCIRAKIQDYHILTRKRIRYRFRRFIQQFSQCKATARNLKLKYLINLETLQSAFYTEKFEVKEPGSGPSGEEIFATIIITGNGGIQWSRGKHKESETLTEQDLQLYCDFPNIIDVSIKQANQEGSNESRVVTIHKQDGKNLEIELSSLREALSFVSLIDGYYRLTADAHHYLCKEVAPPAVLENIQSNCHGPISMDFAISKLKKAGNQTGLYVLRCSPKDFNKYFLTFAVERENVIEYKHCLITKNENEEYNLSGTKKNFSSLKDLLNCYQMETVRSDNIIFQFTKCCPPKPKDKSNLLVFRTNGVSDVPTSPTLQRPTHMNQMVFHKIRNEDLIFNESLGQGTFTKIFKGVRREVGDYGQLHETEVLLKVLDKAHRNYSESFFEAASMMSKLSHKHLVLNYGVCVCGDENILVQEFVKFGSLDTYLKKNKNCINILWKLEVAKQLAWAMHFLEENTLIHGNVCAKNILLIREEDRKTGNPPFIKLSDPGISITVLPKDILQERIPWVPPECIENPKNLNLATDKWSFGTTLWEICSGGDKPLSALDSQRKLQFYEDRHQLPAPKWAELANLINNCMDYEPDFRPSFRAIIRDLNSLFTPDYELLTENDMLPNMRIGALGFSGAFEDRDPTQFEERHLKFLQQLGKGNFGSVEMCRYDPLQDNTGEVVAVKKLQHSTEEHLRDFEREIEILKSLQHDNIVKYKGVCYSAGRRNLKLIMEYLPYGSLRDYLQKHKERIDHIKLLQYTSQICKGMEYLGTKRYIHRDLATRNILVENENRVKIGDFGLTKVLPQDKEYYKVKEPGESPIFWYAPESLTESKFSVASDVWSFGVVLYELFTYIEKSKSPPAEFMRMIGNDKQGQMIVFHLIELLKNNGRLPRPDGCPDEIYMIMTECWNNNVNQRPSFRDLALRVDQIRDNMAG

In general, pIC50 refers to the negative decadic logarithm of the IC50, by convention in mol/L. As to `CCC(=O)c1cnc(Nc2cc(OCCO)n(C)n2)cc1Nc1cccc(-c2ncn(C)n2)c1OC` [Compound 21AA], the pIC50 on TYK2 JH2 domain was 7.30 to 8.30; on human JAK1, ≤ 6.30; against human JAK2, ≤ 6.30; against human JAK3, 6.30 to 7.30.
In the case of `CCC(=O)c1cnc(Nc2ccn(CC3CCCO3)n2)cc1Nc1cccc(-c2ncn(C)n2)c1OC` (centres unmarked) [Compound 21S], the pIC50 on TYK2 JH2 domain was 7.30 to 8.30; against human JAK1, ≤ 6.30; against human JAK2, ≤ 6.30; on human JAK3, ≤ 6.30.
On to `CCC(=O)c1cnc(Nc2ccc(CN3C[C@@H](C)O[C@@H](C)C3)cn2)cc1Nc1cccc(-c2ncn(C)n2)c1OC` [Compound 9UU], for which the pIC50 on TYK2 JH2 domain is > 8.30; against human JAK1 it was ≤ 6.30; against human JAK2 it was ≤ 6.30; against human JAK3, ≤ 6.30.
`CCC(=O)c1cnc(Nc2cc(C(N)=O)ccn2)cc1Nc1cccc(-c2ncn(C)n2)c1OC` [Compound 8F]: the pIC50 at TYK2 JH2 domain is > 8.30; against human JAK1 it was ≤ 6.30; against human JAK2, ≤ 6.30; against human JAK3, ≤ 6.30.
Turning to `CCC(=O)c1cnc(NC(=O)CC2(O)CC2)cc1Nc1cccc(-c2ncn(C)n2)c1OC` [Compound 23C], the pIC50 was 6.30 to 7.30 on TYK2 JH2 domain, ≤ 6.30 on human JAK1, ≤ 6.30 against human JAK2 and ≤ 6.30 at human JAK3.
Take `CCC(=O)c1cnc(Nc2ccc(-c3ccc[nH]c3=O)cn2)cc1Nc1cccc(-c2ncn(C)n2)c1OC` [Compound 15W]: the pIC50 is 7.30 to 8.30 on TYK2 JH2 domain, ≤ 6.30 at human JAK1, 6.30 to 7.30 against human JAK2 and 6.30 to 7.30 on human JAK3.
For the molecule `CCC(=O)c1cnc(Nc2ccn(CC3(CO)COC3)n2)cc1Nc1cccc(-c2ncn(C)n2)c1OC` [Compound 21U], the pIC50 on TYK2 JH2 domain was 6.30 to 7.30; at human JAK1, ≤ 6.30; on human JAK2, 6.30 to 7.30; on human JAK3, 6.30 to 7.30.
`CCC(=O)c1cnc(Nc2ccc(OC3CN(C)C3)nn2)cc1Nc1cccc(-c2ncn(C)n2)c1OC` [Compound 18DDDD]: the pIC50 at TYK2 JH2 domain was 7.30 to 8.30; at human JAK1, ≤ 6.30; on human JAK2, ≤ 6.30; against human JAK3 it was ≤ 6.30.
With `CCC(=O)c1cnc(Nc2ccc(C(C)(C)NC)nn2)cc1Nc1cccc(-c2ncn(C)n2)c1OC` [Compound 9MMM], the pIC50 was 7.30 to 8.30 at TYK2 JH2 domain, ≤ 6.30 against human JAK1, ≤ 6.30 at human JAK2 and ≤ 6.30 on human JAK3.
On to `CCC(=O)c1cnc(Nc2cc3c(cn2)B(O)OC3)cc1Nc1cccc(-c2ncn(C)n2)c1OC` [Compound 15CC], for which the pIC50 on TYK2 JH2 domain was > 8.30; on human JAK1 it was ≤ 6.30; on human JAK2 it was ≤ 6.30; against human JAK3, ≤ 6.30.
Turning to `CCC(=O)c1cnc(Nc2cc(C)n([C@H]3C[C@@H](OC)C3)n2)cc1Nc1cccc(-c2ncn(C)n2)c1OC` [Compound 21EE], the pIC50 at TYK2 JH2 domain was > 8.30; against human JAK1, ≤ 6.30; against human JAK2, ≤ 6.30; at human JAK3, ≤ 6.30.
Take `CCC(=O)c1cnc(Nc2ccc(CN3CC[C@@H](F)C3)cn2)cc1Nc1cccc(-c2ncn(C)n2)c1OC` [Compound 9JJ]: the pIC50 at TYK2 JH2 domain is > 8.30; on human JAK1, ≤ 6.30; against human JAK2 it was ≤ 6.30; on human JAK3, ≤ 6.30.
As to `CCC(=O)c1cnc(Nc2cnc(CN)cn2)cc1Nc1cccc(-c2ncn(C)n2)c1OC` [Compound 9QQQ], the pIC50 at TYK2 JH2 domain is > 8.30; against human JAK1 it was ≤ 6.30; against human JAK2, ≤ 6.30; against human JAK3 it was ≤ 6.30.
Regarding `CCC(=O)c1cnc(Nc2cnc(O[C@@H]3CCN(C)C[C@@H]3F)cn2)cc1Nc1cccc(-c2ncn(C)n2)c1OC` [Compound 18SSS], the negative-log IC50 (pIC50) at TYK2 JH2 domain is 7.30 to 8.30; against human JAK1, ≤ 6.30; against human JAK2, ≤ 6.30; against human JAK3, ≤ 6.30.
In the case of `CCC(=O)c1cnc(Nc2ccc(O[C@@H]3CCOC3)cn2)cc1Nc1cccc(-c2ncn(C)n2)c1OC` [Compound 18BB], the pIC50 on TYK2 JH2 domain is > 8.30; against human JAK1, ≤ 6.30; against human JAK2, ≤ 6.30; against human JAK3, ≤ 6.30.
Consider `CCC(=O)c1cnc(Nc2cc(-c3ncn(C)n3)ccn2)cc1Nc1cccc(-c2ncn(C)n2)c1OC` [Compound 15F], for which the pIC50 on TYK2 JH2 domain is > 8.30; at human JAK1 it was ≤ 6.30; against human JAK2, ≤ 6.30; at human JAK3, ≤ 6.30.
With `CCC(=O)c1cnc(Nc2ccc(CN3CC4(COC4)C3)cn2)cc1Nc1cccc(-c2ncn(C)n2)c1OC` [Compound 9YY], the pIC50 is > 8.30 on TYK2 JH2 domain, ≤ 6.30 against human JAK1, ≤ 6.30 against human JAK2 and 6.30 to 7.30 on human JAK3.
As for `CCC(=O)c1cnc(Nc2ccc(CN3CCCCC3)cn2)cc1Nc1cccc(-c2ncn(C)n2)c1OC` [Compound 9RR], the pIC50 was > 8.30 on TYK2 JH2 domain, ≤ 6.30 at human JAK1, ≤ 6.30 against human JAK2 and ≤ 6.30 on human JAK3.
For `CCC(=O)c1cnc(Nc2cnc(C(N(C)C)C(F)(F)F)cn2)cc1Nc1cccc(-c2ncn(C)n2)c1OC` (centres unmarked) [Compound 9VVV], the pIC50 at TYK2 JH2 domain was 7.30 to 8.30; against human JAK1, ≤ 6.30; on human JAK2, ≤ 6.30; at human JAK3, ≤ 6.30.
`CCC(=O)c1cnc(Nc2ncc(CN3CCCC3)cc2F)cc1Nc1cccc(-c2ncn(C)n2)c1OC` [Compound 9CCCC]: the pIC50 on TYK2 JH2 domain was 7.30 to 8.30; against human JAK1, ≤ 6.30; against human JAK2 it was ≤ 6.30; against human JAK3, ≤ 6.30.
For the molecule `CCC(=O)c1cnc(Nc2ccc(CN3CCOCC3)cn2)cc1Nc1cccc(-c2ncn(C)n2)c1OC` [Compound 9SS], the pIC50 on TYK2 JH2 domain is > 8.30; at human JAK1 it was ≤ 6.30; against human JAK2, ≤ 6.30; on human JAK3, ≤ 6.30.
In the case of `CCC(=O)c1cnc(Nc2cc(CN3CCCC3)n(C)n2)cc1Nc1cccc(-c2ncn(C)n2)c1OC` [Compound 21G], the pIC50 at TYK2 JH2 domain was > 8.30; against human JAK1, ≤ 6.30; on human JAK2, 6.30 to 7.30; at human JAK3, 6.30 to 7.30.
As for `CCC(=O)c1cnc(Nc2ccc(C(N)C(F)(F)F)cn2)cc1Nc1cccc(-c2ncn(C)n2)c1OC` (centres unmarked) [Compound 9CC], the pIC50 on TYK2 JH2 domain was > 8.30; against human JAK1, ≤ 6.30; on human JAK2, ≤ 6.30; against human JAK3, ≤ 6.30.
Take `CCC(=O)c1cnc(Nc2ccc(CN)nn2)cc1Nc1cccc(-c2ncn(C)n2)c1OC` [Compound 9FFF]: the pIC50 is 6.30 to 7.30 on TYK2 JH2 domain, ≤ 6.30 against human JAK1, ≤ 6.30 on human JAK2 and ≤ 6.30 on human JAK3.
Take `CCC(=O)c1cnc(Nc2ccc(CN3CC(F)C3)cn2)cc1Nc1cccc(-c2ncn(C)n2)c1OC` [Compound 9EE]: the pIC50 is > 8.30 at TYK2 JH2 domain, ≤ 6.30 at human JAK1, ≤ 6.30 on human JAK2 and 6.30 to 7.30 at human JAK3.
For the molecule `CCC(=O)c1cnc(Nc2ncc(CN(C)C)cc2F)cc1Nc1cccc(-c2ncn(C)n2)c1OC` [Compound 9DDDD], the pIC50 at TYK2 JH2 domain is 7.30 to 8.30; at human JAK1, ≤ 6.30; against human JAK2, ≤ 6.30; at human JAK3 it was ≤ 6.30.
`CCC(=O)c1cnc(Nc2cnc(C3(NC)CC3)cn2)cc1Nc1cccc(-c2ncn(C)n2)c1OC` [Compound 9ZZZ]: the pIC50 on TYK2 JH2 domain is 7.30 to 8.30; at human JAK1 it was ≤ 6.30; against human JAK2 it was ≤ 6.30; against human JAK3 it was ≤ 6.30.
Turning to `CCC(=O)c1cnc(Nc2ncc(O[C@@H]3CCN(C)C3)cc2F)cc1Nc1cccc(-c2ncn(C)n2)c1OC` [Compound 18XXX], the pIC50 at TYK2 JH2 domain is 7.30 to 8.30; at human JAK1, ≤ 6.30; against human JAK2, ≤ 6.30; against human JAK3, ≤ 6.30.
For `CCC(=O)c1cnc(Nc2ccc(OCCO)nn2)cc1Nc1cccc(-c2ncn(C)n2)c1OC` [Compound 18M], the pIC50 at TYK2 JH2 domain is > 8.30; against human JAK1 it was ≤ 6.30; on human JAK2 it was ≤ 6.30; against human JAK3, ≤ 6.30.
As to `CCC(=O)c1cnc(Nc2cc(CN3CCCCC3)ccn2)cc1Nc1cccc(-c2ncn(C)n2)c1OC` [Compound 9JJJJ], the pIC50 on TYK2 JH2 domain is > 8.30; against human JAK1, ≤ 6.30; against human JAK2 it was ≤ 6.30; against human JAK3, 6.30 to 7.30.
Turning to `CCC(=O)c1cnc(Nc2ccnc(O[C@H]3CCN(C)C3)n2)cc1Nc1cccc(-c2ncn(C)n2)c1OC` [Compound 18KK], the pIC50 on TYK2 JH2 domain was 7.30 to 8.30; on human JAK1 it was ≤ 6.30; against human JAK2, ≤ 6.30; against human JAK3, ≤ 6.30.
For the molecule `CCC(=O)c1cnc(Nc2cnc(C(F)(F)CNC)cn2)cc1Nc1cccc(-c2ncn(C)n2)c1OC` [Compound 19B], the pIC50 at TYK2 JH2 domain is 6.30 to 7.30; against human JAK1 it was ≤ 6.30; on human JAK2, ≤ 6.30; at human JAK3, ≤ 6.30.
Regarding `CCC(=O)c1cnc(Nc2cnc(O[C@@H]3C[C@H](C)N(C)C3)cn2)cc1Nc1cccc(-c2ncn(C)n2)c1OC` [Compound 18MMM], the pIC50 on TYK2 JH2 domain is 7.30 to 8.30; against human JAK1, ≤ 6.30; on human JAK2, ≤ 6.30; against human JAK3, ≤ 6.30.
As for `CCC(=O)c1cnc(Nc2ccn(S(=O)(=O)C3CC3)n2)cc1Nc1cccc(-c2ncn(C)n2)c1OC` [Compound 21D], the pIC50 is 7.30 to 8.30 at TYK2 JH2 domain, ≤ 6.30 on human JAK1, ≤ 6.30 at human JAK2 and ≤ 6.30 on human JAK3.
As to `CCC(=O)c1cnc(Nc2cnc(CCN3CCCC3)cn2)cc1Nc1cccc(-c2ncn(C)n2)c1OC` [Compound 11J], the pIC50 at TYK2 JH2 domain was 7.30 to 8.30; on human JAK1, ≤ 6.30; on human JAK2, ≤ 6.30; against human JAK3, ≤ 6.30.
